Patent US11331299B2, “Medicinal use of serrulatane diterpenes” (The University of Sydney, priority 2016, dated 2022)
Read-outs that look alike come from different tables or passages of the source.

System: 280 human cancer cell lines
Test: OncoPanel cell proliferation assay (10-day)
Assay type: cell-based
Conditions: Homo sapiens; for IC50: read-out: Cell Count IC50; for EC50: read-out: Cell Count EC50; for GI50: read-out: Cell Count GI50
[1] = Caov-3, CaOV3, Female GU - Ovary
[2] = ChaGo-K-1, ChaGoK1, Lung - NSCLC
[3] = D341 Med, CNS - Medulloblastoma
[4] = Detroit 562, Detroit 562, Head and Neck
[5] = DoTc2-4510, DoTc2 4510, Lymphoma
[6] = G292, G-292, clone A141B1, Soft Tissue - Osteosarcoma
[7] = HEL 92.1.7, HEL-92-1-7, Leukemia
[8] = HOS, Soft Tissue - Osteosarcoma
[9] = HT-1080, HT-1080, Soft Tissue - Sarcoma
[10] = HUH-6-clone5, HUH-6 Clone 5, Liver
[11] = Hs 821.T, Soft Tissue - Sarcoma
[12] = Hs 888.Sk, Soft Tissue - Osteosarcoma

CC(C)=CCC[C@H](CO)[C@@H]1CC[C@@H](C)c2c1cc(C)c(O)c2O [Compound 1, 7,8,18-trihydroxyserrulat-14-ene]
IC50 (Calu-6, Calu6, Lung - NSCLC): 9240 nM | EC50 [1]: 1910 nM | GI50 [1]: 1850 nM | IC50 [1]: 1920 nM | EC50 (Capan-2, Capan-2, Pancreas): 1330 nM | GI50 (Capan-2, Capan-2, Pancreas): 1320 nM | IC50 (Capan-2, Capan-2, Pancreas): 1330 nM | EC50 [2]: 1530 nM | GI50 [2]: 1530 nM | IC50 [2]: 1540 nM | EC50 [3]: 9090 nM | GI50 [3]: 9370 nM | IC50 [3]: 9460 nM | EC50 (DB, Lymphoma): 2100 nM | GI50 (DB, Lymphoma): 2090 nM | IC50 (DB, Lymphoma): 2100 nM | EC50 (DBTRG-05MG, CNS - Glioma): 2650 nM | GI50 (DBTRG-05MG, CNS - Glioma): 2640 nM | IC50 (DBTRG-05MG, CNS - Glioma): 2660 nM | EC50 (DK-MG, CNS - Glioma): 6160 nM | GI50 (DK-MG, CNS - Glioma): 6120 nM | IC50 (DK-MG, CNS - Glioma): 6410 nM | EC50 (DLD-1, DLD-1, Colon): 2960 nM | GI50 (DLD-1, DLD-1, Colon): 2960 nM | IC50 (DLD-1, DLD-1, Colon): 2960 nM | EC50 (DMS-53, DMS53, Lung - SCLC): 810 nM | GI50 (DMS-53, DMS53, Lung - SCLC): 770 nM | IC50 (DMS-53, DMS53, Lung - SCLC): 810 nM | EC50 (DMS-114, DMS114, Lung - SCLC): 2770 nM | GI50 (DMS-114, DMS114, Lung - SCLC): 2570 nM | IC50 (DMS-114, DMS114, Lung - SCLC): 2770 nM | EC50 (DOHH-2, DOHH-2, Lymphoma): 1410 nM | GI50 (DOHH-2, DOHH-2, Lymphoma): 1410 nM | IC50 (DOHH-2, DOHH-2, Lymphoma): 1410 nM | EC50 (DU-145, DU145, Prostate): 2800 nM | GI50 (DU-145, DU145, Prostate): 2780 nM | IC50 (DU-145, DU145, Prostate): 2800 nM | EC50 (Daoy, CNS - Medulloblastoma): 1060 nM | GI50 (Daoy, CNS - Medulloblastoma): 1060 nM | IC50 (Daoy, CNS - Medulloblastoma): 1060 nM | EC50 (Daudi, Lymphoma): 1840 nM | GI50 (Daudi, Lymphoma): 1840 nM | IC50 (Daudi, Lymphoma): 1840 nM | EC50 [4]: 1960 nM | GI50 [4]: 1960 nM | IC50 [4]: 1970 nM | EC50 [5]: 1030 nM | GI50 [5]: 1010 nM | IC50 [5]: 1030 nM | EC50 (EB2, Lymphoma): 6470 nM | GI50 (EB2, Lymphoma): 6450 nM | IC50 (EB2, Lymphoma): 6490 nM | EC50 (EB-3, Lymphoma): 3560 nM | GI50 (EB-3, Lymphoma): 3560 nM | IC50 (EB-3, Lymphoma): 3560 nM | EC50 (EFM-19, EFM-19, Breast): 1610 nM | GI50 (EFM-19, EFM-19, Breast): 1540 nM | IC50 (EFM-19, EFM-19, Breast): 1610 nM | EC50 (EM-2, Leukemia): 2390 nM | GI50 (EM-2, Leukemia): 2370 nM | IC50 (EM-2, Leukemia): 2390 nM | EC50 (FaDu, Head and Neck): 870 nM | GI50 (FaDu, Head and Neck): 870 nM | IC50 (FaDu, Head and Neck): 870 nM | EC50 [6]: 4550 nM | GI50 [6]: 4410 nM | IC50 [6]: 4570 nM | EC50 (G-361, G-361, Skin (Melanoma)): 1790 nM | GI50 (G-361, G-361, Skin (Melanoma)): 1770 nM | IC50 (G-361, G-361, Skin (Melanoma)): 1790 nM | EC50 (G-401, G-401, Kidney): 4000 nM | GI50 (G-401, G-401, Kidney): 3990 nM | IC50 (G-401, G-401, Kidney): 4000 nM | EC50 (GA-10, GA-10, Lymphoma): 1930 nM | GI50 (GA-10, GA-10, Lymphoma): 1940 nM | IC50 (GA-10, GA-10, Lymphoma): 1940 nM | EC50 (H4, CNS - Glioma): 2770 nM | GI50 (H4, CNS - Glioma): 2770 nM | IC50 (H4, CNS - Glioma): 2770 nM | EC50 (HCT-15, HCT-15, Colon): 1840 nM | GI50 (HCT-15, HCT-15, Colon): 1830 nM | IC50 (HCT-15, HCT-15, Colon): 1840 nM | EC50 (HCT-116, HCT-116, Colon): 1750 nM | GI50 (HCT-116, HCT-116, Colon): 1750 nM | IC50 (HCT-116, HCT-116, Colon): 1750 nM | EC50 (HEC-1-A, Female GU - Uterus): 2570 nM | GI50 (HEC-1-A, Female GU - Uterus): 2560 nM | IC50 (HEC-1-A, Female GU - Uterus): 2570 nM | EC50 [7]: 13900 nM | GI50 [7]: 13900 nM | IC50 [7]: 13900 nM | EC50 (HLE, Liver): 4620 nM | GI50 (HLE, Liver): 4590 nM | IC50 (HLE, Liver): 4630 nM | EC50 (HLF, Liver): 4470 nM | GI50 (HLF, Liver): 4450 nM | IC50 (HLF, Liver): 4480 nM | EC50 (HMCB, Skin (Melanoma)): 1370 nM | GI50 (HMCB, Skin (Melanoma)): 1360 nM | IC50 (HMCB, Skin (Melanoma)): 1370 nM | EC50 [8]: 960 nM | GI50 [8]: 960 nM | IC50 [8]: 960 nM | EC50 (HPAF-II, Pancreas): 1380 nM | GI50 (HPAF-II, Pancreas): 1370 nM | IC50 (HPAF-II, Pancreas): 1380 nM | EC50 (HT1197, HT-1197, Bladder): 2310 nM | GI50 (HT1197, HT-1197, Bladder): 2280 nM | IC50 (HT1197, HT-1197, Bladder): 2340 nM | EC50 (HT, Lymphoma): 1520 nM | GI50 (HT, Lymphoma): 1510 nM | IC50 (HT, Lymphoma): 1530 nM | EC50 (HT-3, Female GU - Cervix): 3880 nM | GI50 (HT-3, Female GU - Cervix): 3840 nM | IC50 (HT-3, Female GU - Cervix): 3890 nM | EC50 (HT-29, HT-29, Colon): 4010 nM | GI50 (HT-29, HT-29, Colon): 4000 nM | IC50 (HT-29, HT-29, Colon): 4010 nM | EC50 [9]: 960 nM | GI50 [9]: 960 nM | IC50 [9]: 960 nM | EC50 (HT-1376, HT1376, Bladder): 1450 nM | GI50 (HT-1376, HT1376, Bladder): 1430 nM | IC50 (HT-1376, HT1376, Bladder): 1460 nM | EC50 [10]: 1520 nM | GI50 [10]: 1510 nM | IC50 [10]: 1520 nM | EC50 (HeLa, Female GU - Cervix): 2990 nM | GI50 (HeLa, Female GU - Cervix): 2980 nM | IC50 (HeLa, Female GU - Cervix): 2990 nM | EC50 (HepG2, HepG2, Liver): 820 nM | GI50 (HepG2, HepG2, Liver): 810 nM | IC50 (HepG2, HepG2, Liver): 820 nM | EC50 (Hs 229.T, Lung - NSCLC): 2880 nM | GI50 (Hs 229.T, Lung - NSCLC): 2890 nM | IC50 (Hs 229.T, Lung - NSCLC): 2940 nM | EC50 (Hs 294T, Skin (Melanoma)): 2640 nM | GI50 (Hs 294T, Skin (Melanoma)): 2590 nM | IC50 (Hs 294T, Skin (Melanoma)): 2640 nM | EC50 (Hs 445, Hs 445, Lymphoma): 1300 nM | GI50 (Hs 445, Hs 445, Lymphoma): 1310 nM | IC50 (Hs 445, Hs 445, Lymphoma): 1320 nM | EC50 (Hs 611.T, Lymphoma): 2920 nM | GI50 (Hs 611.T, Lymphoma): 2910 nM | IC50 (Hs 611.T, Lymphoma): 2940 nM | EC50 (Hs 683, Hs 683, CNS - Glioma): 4900 nM | GI50 (Hs 683, Hs 683, CNS - Glioma): 4760 nM | IC50 (Hs 683, Hs 683, CNS - Glioma): 4910 nM | EC50 (Hs 688(A).T, Skin (Melanoma)): 1330 nM | GI50 (Hs 688(A).T, Skin (Melanoma)): 1270 nM | IC50 (Hs 688(A).T, Skin (Melanoma)): 1440 nM | EC50 (Hs746T, HS 746T, Stomach): 5580 nM | GI50 (Hs746T, HS 746T, Stomach): 4640 nM | IC50 (Hs746T, HS 746T, Stomach): 5740 nM | EC50 (Hs766T, Hs 766T, Pancreas): 1610 nM | GI50 (Hs766T, Hs 766T, Pancreas): 1540 nM | IC50 (Hs766T, Hs 766T, Pancreas): 1610 nM | EC50 [11]: 4220 nM | GI50 [11]: 1800 nM | IC50 [11]: 4220 nM | EC50 [12]: 2200 nM | GI50 [12]: 2050 nM | IC50 [12]: 2380 nM | EC50 (Hs 934.T, Skin (Melanoma)): 2530 nM | GI50 (Hs 934.T, Skin (Melanoma)): 2340 nM | IC50 (Hs 934.T, Skin (Melanoma)): 3270 nM | EC50 (Hs 936.T(C1), Skin (Melanoma)): 2000 nM | GI50 (Hs 936.T(C1), Skin (Melanoma)): 1970 nM | IC50 (Hs 936.T(C1), Skin (Melanoma)): 2000 nM | EC50 (Hs-578T, Hs 578T, Breast): 4740 nM | GI50 (Hs-578T, Hs 578T, Breast): 4680 nM | IC50 (Hs-578T, Hs 578T, Breast): 4760 nM | EC50 (HuCCT-1, HuCCT1, Liver): 2480 nM | GI50 (HuCCT-1, HuCCT1, Liver): 2480 nM | IC50 (HuCCT-1, HuCCT1, Liver): 2480 nM | EC50 (HuP-T4, HuP-T4, Pancreas): 4520 nM | GI50 (HuP-T4, HuP-T4, Pancreas): 4530 nM | IC50 (HuP-T4, HuP-T4, Pancreas): 4540 nM | EC50 (J82, Bladder): 1060 nM | GI50 (J82, Bladder): 1050 nM | IC50 (J82, Bladder): 1060 nM | EC50 (JAR, Placenta): 12200 nM | GI50 (JAR, Placenta): 12200 nM | IC50 (JAR, Placenta): 12200 nM | EC50 (JEG-3, JEG-3, Placenta): 4330 nM | GI50 (JEG-3, JEG-3, Placenta): 4320 nM | IC50 (JEG-3, JEG-3, Placenta): 4330 nM | EC50 (JIYOYE, Lymphoma): 5880 nM | GI50 (JIYOYE, Lymphoma): 5870 nM | IC50 (JIYOYE, Lymphoma): 5880 nM | EC50 (JeKo-1, JeKo-1, Lymphoma): 5230 nM | GI50 (JeKo-1, JeKo-1, Lymphoma): 5210 nM | IC50 (JeKo-1, JeKo-1, Lymphoma): 5230 nM | EC50 (Jurkat, Leukemia): 2250 nM | GI50 (Jurkat, Leukemia): 2240 nM | IC50 (Jurkat, Leukemia): 2250 nM | EC50 (K562, K562, Leukemia): 4600 nM | GI50 (K562, K562, Leukemia): 4580 nM | IC50 (K562, K562, Leukemia): 4600 nM | EC50 (KATO III, Stomach): 3280 nM | GI50 (KATO III, Stomach): 3270 nM | IC50 (KATO III, Stomach): 3280 nM | EC50 (KHOS-240S, Soft Tissue - Osteosarcoma): 950 nM
